# In patent US8658638B2, “Mineralocorticoid receptor antagonist and methods of use” (priority 2009, dated 2014):
# Tested on: adrenalectomized Sprague Dawley rats
# Test: In vivo assay of electrolyte modulation
# Conditions: 30 mg/kg p.o., aldosterone 3 μg/kg s.c., urine collected 5 hours after dose, rat
# Experimental: Male Sprague Dawley rats (240-280 g) are adrenalectomized then maintained on 5001 rodent chow and 1% NaCl drinking solution for 6 days after surgery. Animals are then fasted overnight and 1% saline drinking water is replaced with house water ad lib. The morning of the study, fasted animals are randomized to treatment on the basis of fasted body weight. Control animals (e.g. those that receive no aldosterone or test compound) are given 10 mL/kg of test compound vehicle comprising 0.5% CMC/0.25% polysorbate 80/2.7% NaCl by oral gavage, and 1 mL/kg of aldosterone vehicle (0.01% DMSO/water) by subcutaneous injection. Vehicle animals are given the same test compound vehicle by oral gavage and aldosterone 3 μg/kg, s.c. Test substances are suspended in the carboxy methylcellulose/NaCl vehicle. The test compound treatment groups receive test substance suspended in the carboxy methylcellulose/NaCl vehicle and aldosterone 3 μg/kg s.c. Immediately after dosing, animals are placed in metabolic racks with ad lib access to house water. Urine samples are collected 5 hours after dose administration and electrolyte excretion is assayed. Data are presented as log Na/K excretion ratio or % of Na/K ratio with respect to adrenalectomized vehicle treated animals. […]
smiles,measurement,value
"O=c1[nH]c2cc(/C=C3\c4ccccc4COc4cc(F)ccc43)ccc2n1[C@@H]1C[C@@H]2COCCN2C1 [Compound (I), 5-((E)-(3-fluorodibenzo[b,e]oxepin-11(6H)-ylidene)methyl)-1-((7R,8aR)-hexahydro-1H-pyrrolo[2,1-c][1,4]oxazin-7-yl)-1H-benzo[d]imidazol-2(3H)-one]",increase of urinary Na/K excretion ratio compared to vehicle treated animals,about 30%
